Data published in patent publication US10779535B2, “Herbicidal compositions comprising 4-amino-3-chloro-5-fluoro-6-(4-chloro-2-fluoro-3-methoxyphenyl) pyridine-2-carboxylic acid or a derivative thereof and tembotrione and/or topramezone” (Dow AgroSciences LLC, priority 2017, dated 2020).

Legend:
Assay in all cases: Post-emergence foliar-applied herbicidal mixtures, greenhouse visual weed control
Assay type in all cases: in vivo
[1] = tested on: IPOHE (Ipomoea hederacea (L.) Jacq., ivyleaf morningglory)
Excerpt: (§1) Seeds of the desired test plant species were planted in a potting media, Metro-mix 360, a peat based potting soil. Metro-mix consists of 35 to 45% specially processed coconutcoir pith, 10 to 20% horticultural grade vermiculite, 15 to 25% processed ash bark, 20 to 30% choice Canadian sphagnum peat moss and proprietary nutrients and other ingredients. When required to ensure good germination and healthy plants, a fungicide treatment and/or other chemical treatment was applied. The plants were grown for 8-16 days in a greenhouse with an approximate 14 h photoperiod which was maintained at about 29° C. during the day and 26° C. during the night. Nutrients (Peters Excel® 15-5-15 5-Ca 2-Mg and iron chelate) were applied in the irrigation solution as needed and water was added on a regular basis. Supplemental lighting was provided with overhead metal halide 1000-Watt lamps as necessary. The plants were sprayed when they reached the second through fourth true leaf stage.
(§2) Treatments consisted of the benzyl ester of 4-amino-3-chloro-5-fluoro-6-(4-chloro-2-fluoro-3-methoxy-phenyl)pyridine-2-carboxylic acid (II), formulated as an SC (suspension concentrate), GF-2978 containing 125.8 g ai/L of active ingredient, and various herbicidal components alone and in combination. The benzyl ester of formula (II) was applied on an active ingredient basis.
(§3) Other herbicidal components were applied on an active ingredient basis and included 4-hydroxyphenyl pyruvate dioxygenase (HPPD)-inhibiting herbicides tembotrione formulated as Laudis, an SC formulation containing 420 g ai/L of tembotrione, or topramezone formulated as Armezon, an SC formulation containing 335.8 g ai/L of topramezone. All treatments were applied with Prime Oil, (crop oil concentrate) at 1% v/v.
(§4) Treatment requirements were calculated based upon the rates being tested, the concentration of active ingredient or acid equivalent in the formulation, for a 30 ml volume based off of an application rate of 200 L/ha. Appropriate amounts of formulated product as calculated by the software package ARM8 (Gylling Data Management Inc.) were added to 60 ml glass vials and diluted with Indianapolis tap water and Prime Oil at 1% v/v. Treatments were applied with Generation III Research Track-Sprayer manufactured by DeVries Manufacturing in Hollandale, Minn., USA, located in building 306, room E1-483, at the Dow AgroSciences Global headquarters in Indianapolis, Ind. US. The track sprayer was calibrated to deliver 200 L/ha utilizing an 8003E even fan spray nozzle at 40 psi (276 kPa) at a speed of 2 mph (3.25 km/hr) and a spray height of 18 to 20 inches (46 to 50 cm) above average plant canopy height.
(§5) The treated plants and control plants were placed in a greenhouse as described above and watered by sub-irrigation to prevent wash-off of the test compounds. […], the condition of the test plants as compared with that of the untreated plants was determined visually and scored on a scale of 0 to 100 percent where 0 corresponds to no injury or growth inhibition and 100 corresponds to complete kill. The Colby method was used to determine the herbicidal effects expected from the mixtures.

[2] = tested on: ECHCG (Echinochloa crusgalli (L.) Beauv., barnyardgrass)
Excerpt: as §1, §2, §3, §4, §5

[3] = tested on: AMAPA (Amaranthus palmeri, Palmer amaranth)
Excerpt: as §1, §2, §3, §4, §5

[4] = tested on: AMARE (Amaranthus retroflexus, redroot pigweed)
Excerpt: as §1, §2, §3, §4
The treated plants and control plants were placed in a greenhouse as described above and watered by sub-irrigation to prevent wash-off of the test compounds. […] the untreated plants was determined visually and scored on a scale of 0 to 100 percent where 0 corresponds to no injury or growth inhibition and 100 corresponds to complete kill. The Colby method was used to determine the herbicidal effects expected from the mixtures.

[5] = Compound II 2.5 gai/ha, Topramezone 0 gai/ha
[6] = Compound II 5 gai/ha, Topramezone 0 gai/ha
[7] = Compound II 7.5 gai/ha, Topramezone 0 gai/ha
[8] = Compound II 15 gai/ha, Topramezone 0 gai/ha
[9] = Compound II 2.5 gai/ha, Tembotrione 0 gai/ha
[10] = Compound II 0 gai/ha, Tembotrione 46 gai/ha
[11] = Compound II 0 gai/ha, Topramezone 3 gai/ha
[12] = Compound II 0 gai/ha, Topramezone 6 gai/ha
[13] = Compound II 0 gai/ha, Topramezone 12 gai/ha
[14] = Compound II 0 gai/ha, Topramezone 24 gai/ha

Structure (SMILES): COc1c(Cl)ccc(-c2nc(C(=O)OCc3ccccc3)c(Cl)c(N)c2F)c1F [Compound II, benzyl 4-amino-3-chloro-6-(4-chloro-2-fluoro-3-methoxyphenyl)-5-fluoropyridine-2-carboxylate]
- Visual Weed Control (%) - 5 DAA IPOHE Obs [1, 5]: 51.25%
- Visual Weed Control (%) - 5 DAA IPOHE Obs [1, 6]: 62.5%
- Visual Weed Control (%) - 5 DAA IPOHE Obs [1, 7]: 61.25%
- Visual Weed Control (%) - 5 DAA IPOHE Obs [1, 8]: 55.75%
- Visual Weed Control (%) - 5 DAA ECHCG Obs [2, 9]: 22.5%
- Visual Weed Control (%) - 5 DAA ECHCG Obs [2, 5]: 22.5%
- Visual Weed Control (%) - 5 DAA ECHCG Obs [2, 6]: 53.75%
- Visual Weed Control (%) - 5 DAA ECHCG Obs [2, 7]: 55%
- Visual Weed Control (%) - 5 DAA ECHCG Obs [2, 8]: 65%
- Visual Weed Control (%) - 12 DAA ECHCG Obs [2, 6]: 61.25%
- Visual Weed Control (%) - 12 DAA ECHCG Obs [2, 7]: 70.75%
- Visual Weed Control (%) - 12 DAA AMAPA Obs [3, 9]: 75%
- Visual Weed Control (%) - 12 DAA AMAPA Obs [3, 5]: 75%
- Visual Weed Control (%) - 12 DAA AMAPA Obs ([3]; Compound II 5 gai/ha, Tembotrione 0 gai/ha): 73.33%
- Visual Weed Control (%) - 12 DAA AMAPA Obs [3, 6]: 73.33%
- Visual Weed Control (%) - 12 DAA AMAPA Obs [3, 7]: 85%
- Visual Weed Control (%) - 12 DAA AMAPA Obs ([3]; Compound II 15 gai/ha, Tembotrione 0 gai/ha): 80%
- Visual Weed Control (%) - 12 DAA AMAPA Obs [3, 8]: 80%
- Visual Weed Control (%) - 5 DAA AMARE Obs [4, 8]: 73%
- Visual Weed Control (%) - 12 DAA AMARE Obs [4, 9]: 61.25%
- Visual Weed Control (%) - 12 DAA AMARE Obs [4, 5]: 61.25%
- Visual Weed Control (%) - 12 DAA AMARE Obs [4, 6]: 65.75%
- Visual Weed Control (%) - 12 DAA AMARE Obs ([4]; Compound II 7.5 gai/ha, Tembotrione 0 gai/ha): 75%
- Visual Weed Control (%) - 12 DAA AMARE Obs [4, 7]: 75%

Structure (SMILES): CS(=O)(=O)c1ccc(C(=O)C2C(=O)CCCC2=O)c(Cl)c1COCC(F)(F)F [Tembotrione, 2-[2-chloro-4-(methylsulfonyl)-3-[(2,2,2-trifluoroethoxy)methyl]benzoyl]-1,3-cyclohexanedione]
- Visual Weed Control (%) - 5 DAA ECHCG Obs [2, 10]: 57.5%
- Visual Weed Control (%) - 12 DAA AMAPA Obs ([3]; Compound II 0 gai/ha, Tembotrione 5.75 gai/ha): 44.33%
- Visual Weed Control (%) - 12 DAA AMAPA Obs ([3]; Compound II 0 gai/ha, Tembotrione 11.5 gai/ha): 50%
- Visual Weed Control (%) - 12 DAA AMAPA Obs ([3]; Compound II 0 gai/ha, Tembotrione 23 gai/ha): 66%
- Visual Weed Control (%) - 12 DAA AMARE Obs [4, 10]: 43.75%

Structure (SMILES): Cc1c(C(=O)c2cnn(C)c2O)ccc(S(C)(=O)=O)c1C1=NOCC1 [Topramezone, [3-(4,5-dihydro-3-isoxazolyl)-2-methyl-4-(methylsulfonyl)phenyl](5-hydroxy-1-methyl-1H-pyrazol-4-yl)methanone]
- Visual Weed Control (%) - 5 DAA IPOHE Obs [1, 11]: 6.25%
- Visual Weed Control (%) - 5 DAA IPOHE Obs [1, 12]: 6.25%
- Visual Weed Control (%) - 5 DAA IPOHE Obs [1, 13]: 8.75%
- Visual Weed Control (%) - 5 DAA IPOHE Obs [1, 14]: 33.25%
- Visual Weed Control (%) - 5 DAA ECHCG Obs [2, 11]: 0.75%
- Visual Weed Control (%) - 5 DAA ECHCG Obs [2, 12]: 6.25%
- Visual Weed Control (%) - 5 DAA ECHCG Obs [2, 14]: 51.25%
- Visual Weed Control (%) - 12 DAA ECHCG Obs [2, 11]: 0%
- Visual Weed Control (%) - 12 DAA ECHCG Obs [2, 12]: 1.25%
- Visual Weed Control (%) - 12 DAA ECHCG Obs [2, 13]: 36.25%
- Visual Weed Control (%) - 12 DAA AMAPA Obs [3, 11]: 86.67%
- Visual Weed Control (%) - 12 DAA AMAPA Obs [3, 12]: 75%
- Visual Weed Control (%) - 5 DAA AMARE Obs [4, 14]: 50.75%
- Visual Weed Control (%) - 12 DAA AMARE Obs [4, 12]: 52.5%
- Visual Weed Control (%) - 12 DAA AMARE Obs [4, 13]: 77.5%
